Assay results reported in patent US20030237103A1, “Methods and compositions for pharmacological and toxicological evaluation of test agents” (priority 2002, published 2003).

System: Panel, parental and outbred (CD-IGS) rat strains
Assay: Clinical chemistry endpoints of gentamicin-treated vs. vehicle rats
Conditions: for T-test value CREAT / T-test value GGT / T-test value GLOB / T-test value GLU / T-test value K / T-test value NA / T-test value PHOS / T-test value TBIL / T-test value TP / T-test value TRIG / T-test value ALB / T-test value ALP / T-test value ALT / T-test value ANION GAP / T-test value AST / T-test value BICARB / T-test value BUN / T-test value CA / T-test value CHOL: 240 mg/Kg gentamicin vs. vehicle
From the text: Percent increase is defined as[(mean drug—mean vehicle control)/mean vehicle control×100] for each strain tested. The number of animals tested in each group is noted below the strain designation in parenthesis as #drug treated animals per #vehicle treated animals.
We sought to maximize the range of genetic susceptibility to the adverse drug effects across the strains.

[1] = Panel (all 6 hybrid strains together)
[2] = Parental Group (all 4 parents combined)

With gentamicin the “T-test value CREAT” value (LEWxF344 rats) was 0.014, the “T-test value GGT” value (LEWxF344 rats) was 0.351 and the “T-test value GLOB” value (LEWxF344 rats) was 0.080. For the same substance, the “T-test value GLU” value (LEWxF344 rats) was 0.455, the “T-test value K” value (LEWxF344 rats) was 0.216 and the “T-test value NA” value (LEWxF344 rats) was 0.227. For the same substance, the “T-test value PHOS” value (LEWxF344 rats) was 0.652, the “T-test value TBIL” value (LEWxF344 rats) was 0.560 and the “T-test value TP” value (LEWxF344 rats) was 1.000. The “T-test value TRIG” value (LEWxF344 rats) was 0.129, the “increase in BUN” value (LEW×F344, BN, F344, LEW and LEW×Bn strains, gentamicin treated) was 2-3 fold and the “T-test value ALB” value [1] was 0.000. For the same substance, the “T-test value ALP” value [1] was 0.300, the “T-test value ALT” value [1] was 0.440 and the “T-test value ANION GAP” value [1] was 0.802. For the same substance, the “T-test value AST” value [1] was 0.026, the “T-test value BICARB” value [1] was 0.204 and the “T-test value BUN” value [1] was 0.000. The “T-test value CA” value [1] was 0.004, the “T-test value CHOL” value [1] was 0.404 and the “T-test value CREAT” value [1] was 0.000. For the same substance, the “T-test value GGT” value [1] was 0.078, the “T-test value GLOB” value [1] was 0.024 and the “T-test value GLU” value [1] was 0.497. For the same substance, the “T-test value K” value [1] was 0.032, the “T-test value NA” value [1] was 0.064 and the “T-test value PHOS” value [1] was 0.091. For the same substance, the “T-test value TBIL” value [1] was 0.244, the “T-test value TP” value [1] was 0.036 and the “T-test value TRIG” value [1] was 0.000. For the same substance, the “T-test value ALB” value [2] was 0.000, the “T-test value ALP” value [2] was 0.037 and the “T-test value ALT” value [2] was 0.047. The “T-test value ANION GAP” value [2] was 0.046, the “T-test value AST” value [2] was 0.040 and the “T-test value BICARB” value [2] was 0.068. For the same substance, the “T-test value BUN” value [2] was 0.000, the “T-test value CA” value [2] was 0.018 and the “T-test value CHOL” value [2] was 0.327. The “T-test value CREAT” value [2] was 0.000, the “T-test value GGT” value [2] was 0.083 and the “T-test value GLOB” value [2] was 0.638. The “T-test value GLU” value [2] was 0.244, the “T-test value K” value [2] was 0.486 and the “T-test value NA” value [2] was 0.000. For the same substance, the “T-test value PHOS” value [2] was 0.016, the “T-test value TBIL” value [2] was 0.141 and the “T-test value TP” value [2] was 0.002. The “T-test value TRIG” value [2] was 0.000, the “T-test value ALB” value (WKY rats) was 0.034 and the “T-test value ALP” value (WKY rats) was 0.003. The “T-test value ALT” value (WKY rats) was 0.346, the “T-test value ANION GAP” value (WKY rats) was 0.137 and the “T-test value AST” value (WKY rats) was 0.244. For the same substance, the “T-test value BICARB” value (WKY rats) was 0.229, the “T-test value BUN” value (WKY rats) was 0.264 and the “T-test value CA” value (WKY rats) was 0.969. For the same substance, the “T-test value CHOL” value (WKY rats) was 0.232, the “T-test value CREAT” value (WKY rats) was 0.156 and the “T-test value GLOB” value (WKY rats) was 0.358. The “T-test value GLU” value (WKY rats) was 0.742, the “T-test value K” value (WKY rats) was 0.881 and the “T-test value NA” value (WKY rats) was 0.134. The “T-test value PHOS” value (WKY rats) was 0.014, the “T-test value TBIL” value (WKY rats) was 0.052 and the “T-test value TP” value (WKY rats) was 0.254. The “T-test value TRIG” value (WKY rats) was 0.010, the “T-test value ALB” value (WKYxBN rats) was 0.080 and the “T-test value ALP” value (WKYxBN rats) was 0.008. The “T-test value ALT” value (WKYxBN rats) was 0.172, the “T-test value ANION GAP” value (WKYxBN rats) was 0.887 and the “T-test value AST” value (WKYxBN rats) was 0.575. The “T-test value BICARB” value (WKYxBN rats) was 0.923, the “T-test value BUN” value (WKYxBN rats) was 0.016 and the “T-test value CA” value (WKYxBN rats) was 0.175. For the same substance, the “T-test value CHOL” value (WKYxBN rats) was 0.610, the “T-test value CREAT” value (WKYxBN rats) was 0.026 and the “T-test value GGT” value (WKYxBN rats) was 0.189. The “T-test value GLOB” value (WKYxBN rats) was 0.361, the “T-test value GLU” value (WKYxBN rats) was 1.000 and the “T-test value K” value (WKYxBN rats) was 0.114. The “T-test value NA” value (WKYxBN rats) was 0.401, the “T-test value PHOS” value (WKYxBN rats) was 0.118 and the “T-test value TBIL” value (WKYxBN rats) was 0.020. The “T-test value TP” value (WKYxBN rats) was 0.070, the “T-test value TRIG” value (WKYxBN rats) was 0.032 and the “T-test value ALB” value (WKYxF344 rats) was 0.002. The “T-test value ALP” value (WKYxF344 rats) was 0.000, the “T-test value ALT” value (WKYxF344 rats) was 0.530 and the “T-test value ANION GAP” value (WKYxF344 rats) was 0.434. The “T-test value AST” value (WKYxF344 rats) was 0.596, the “T-test value BICARB” value (WKYxF344 rats) was 0.318 and the “T-test value BUN” value (WKYxF344 rats) was 0.005. For the same substance, the “T-test value CA” value (WKYxF344 rats) was 0.135, the “T-test value CHOL” value (WKYxF344 rats) was 0.867 and the “T-test value CREAT” value (WKYxF344 rats) was 0.043. The “T-test value GLOB” value (WKYxF344 rats) was 0.104, the “T-test value GLU” value (WKYxF344 rats) was 0.375 and the “T-test value K” value (WKYxF344 rats) was 0.270. The “T-test value NA” value (WKYxF344 rats) was 0.128, the “T-test value PHOS” value (WKYxF344 rats) was 0.010 and the “T-test value TBIL” value (WKYxF344 rats) was 0.002. The “T-test value TP” value (WKYxF344 rats) was 0.125, the “T-test value TRIG” value (WKYxF344 rats) was 0.007 and the “T-test value ALB” value (WKYxLEW rats) was 0.001. For the same substance, the “T-test value ALP” value (WKYxLEW rats) was 0.001, the “T-test value ALT” value (WKYxLEW rats) was 0.584 and the “T-test value ANION GAP” value (WKYxLEW rats) was 0.429. For the same substance, the “T-test value AST” value (WKYxLEW rats) was 0.677, the “T-test value BICARB” value (WKYxLEW rats) was 0.085 and the “T-test value BUN” value (WKYxLEW rats) was 0.000. For the same substance, the “T-test value CA” value (WKYxLEW rats) was 0.092, the “T-test value CHOL” value (WKYxLEW rats) was 0.608 and the “T-test value CREAT” value (WKYxLEW rats) was 0.000. For the same substance, the “T-test value GLOB” value (WKYxLEW rats) was 0.365, the “T-test value GLU” value (WKYxLEW rats) was 0.001 and the “T-test value K” value (WKYxLEW rats) was 0.689. For the same substance, the “T-test value NA” value (WKYxLEW rats) was 0.514, the “T-test value PHOS” value (WKYxLEW rats) was 0.123 and the “T-test value TBIL” value (WKYxLEW rats) was 0.685. The “T-test value TP” value (WKYxLEW rats) was 0.000 and the “T-test value TRIG” value (WKYxLEW rats) was 0.015.
